In patent US5242942A, “Anticonvulsant fructopyranose cyclic sulfites and sulfates” (McNeilab, Inc., priority 1992, dated 1993):

Columns and labels:
[1] = tested on: tonic extensor seizure; assay: maximal electroshock test (MES); assay type: in vivo, mouse (albino male CRS-CD1); conditions: PO, mouse, 4 hr, read-out: % Block (MES Test, mouse)
Method: The compounds of formula (I) are particularly useful as anticonvulsant agents in mammals including humans. The anticonvulsant activity of the subject compounds was determined using a standard "maximal electroshock test" (MES). In this test, activity is indicated by a block of the […] extensor seizure caused by application of an electric shock to mice via corneal electrodes, as described by Swinyard et al. in J. Pharmacol. Expt. Ther. 1952, 106, 319, and recorded as % block. A more recent description of current anticonvulsant drug screening is given by Swinyard in Epilepsia 1978, 19, 409. The anticonvulsant activity of the compounds of this invention tested according to the Swinyard 1952 method is shown in the following Table I.
In the test, albino male CRS-CD1 mice weighing between 18-25 g were used in all experiments (obtained from Charles River). They were allowed food and water ad libitum and were used only once. The electroshock apparatus and the corneal electrodes were purchased from Wahlquist Instrument Company, Salt Lake City, Utah.
Maximal electroshock seizures were induced by the delivery of a 60 Hertz (Hz) current of 50 milliamps (mA) intensity to the mouse through corneal electrodes for 0.2 seconds as originally described by Swinyard et al. (1952). This stimulus intensity is approximately 4 to 6 times the current producing 100% tonic extensor convulsions. During the validation of the MES test, the duration of the various seizure components following maximal electroshock were measured as follows: hindleg tonic flexion was measured from the time of the application of the stimulus to the time of onset of hindleg tonic extension (i.e. when the hindlegs deviate by greater than an angle of 90° from the torso), hindleg tonic extensor was measured from the time of extensor thrust to the onset of generalized clonus, and terminal clonus was measured from the beginning to the end of bilateral rhythmic clonic jerking. Mortality was also recorded. The duration of each seizure component agreed well with the values previously reported by Tedeschi et al. in J. Pharmacol. Expt. Ther. 1955, 116, 107. The corneal electrodes were concave so that saline could be applied to the electrodes to reduce mortality. If this procedure is followed, mortality should always be less than 40% in control mice. Thus, at an electroshock stimulus of 60 Hz, 50 mA and 0.2 seconds duration, the order of convulsive components and the percentage of control animals displaying the behaviors should be as follows: tonic flexion (100%), tonic extension (100%) and clonus (100%) with less than 40% mortality.
For testing compounds, the abolition of the tonic extensor component was the endpoint. Animals were dosed orally (PO) with either vehicle or test drug and at a specified time were given a maximal electric shock through corneal electrodes blotted with saline (as described above). A minimum of 10 animals were used per group and the percentage of animals in the group without tonic hindlimb extension recorded. Determination of ED50 values (that dose of drug inhibiting 50% of the tonic extensor seizures) is shown below in Table I.

[2] = rat diuresis study; assay type: in vivo, rat (male Wistar); conditions: average of five animals; for Water Intake: control 15.0; for Urine Output: control 17.6
Excerpt: Evidence for the inhibition of carbonic anhydrase by compounds of the formula (I) can also be obtained by a diuresis study, such as described by A. Weiner in Goodman and Gilman's The Pharmacological Basis of Therapeutics, 8th ed.; Goodman Gilman, A.; Rall, T. W.; Nies, A. S.; Taylor, P., Eds.; Pergamon Press: New York, 1990; pp 716-718. An increase in urine akalinity accompanied with an increase in water intake and urine output provides an indirect indication of carbonic anhydrase inhibition activity. Male Wistar rats having a weight of 250-300 g were dosed orally (PO) and housed in cages that allowed for the quantitative measure of fluid intake and urine output. Water intake and urine output were measured at 24 hours versus control, whereas urine pH, obtained via pH meter, was measured at 4 and 24 hours versus control. The results of this study, which are the average of five animals, are reported below in Table III. […] Such data is also an indication of the usefulness of the compounds of formula (I) as diuretics in the treatment of hypertension, congestive heart failure and other types of edema. The determination of suitable dosages for such compounds for the treatment of hypertension and congestive heart failure and other types of edema is within the skill of the art.

[3] = tested on: Total Acid Output; assay: pylorus-ligated rat test, gastric antisecretory activity; assay type: in vivo, rat (male Charles River Sprague-Dawley derived); conditions: IP, 200 mg/kg
Method: The gastric antisecretory activity of the compounds shown in Table II was determined by the pylorus-ligated rat test described by Shay et al. in Gastroenterol. 1954, 26, 906. In this method, male Charles River Sprague-Dawley derived rats weighing 150-300 grams were deprived of food but not water for 18-24 hours prior to use. Water was withheld during the experiment, however. The rats were weighed, lightly anesthetized with ether and the pylorus ligated according to the method of Shay et al., supra. The treatment or vehicle control was then administered intraperitoneally (IP) or orally (PO). When administered by the IP route, the administration was done 30 minutes before ligation. When administered by the PO route, the administration was done prior to ligation (about 1/2 to 3 hours before). Rats were housed two per cage and sacrificed with carbon dioxide 3 hours after ligation. Their stomachs were removed, rinsed, and contents emptied into a graduated centrifuge tube. The tubes were centrifuged, the volume of gastric juice was recorded, and any samples obviously contaminated by feces, food or blood were eliminated. A 1 mL aliquot of gastric juice was titrated with 0.1N NaOH to a pH of 7.0-7.4. The volume of gastric juice secreted, the acid concentration, and the product of the volume times the concentration, i.e. the total amount of acid secreted, were measured. The total acid output was calculated by multiplying the volume of gastric juices collected times the hydrogen ion concentration (amount of NaOH added to a sample to reach a pH of 7.0-7.4) and dividing that value by 10. The mean value of the total acid output for a control group of rats was then subtracted from the mean value of the total acid output for the group of rats tested at the same dose. That value was then divided by the mean value of total acid output for the control group and the resulting number was multiplied by 100 to provide a Percent Inhibition value, which values are reported in Table II. The […] was determined statistically as the dose at which a 50% inhibition would be realized.

CC1(C)O[C@@H]2[C@H]3OS(=O)(=O)O[C@H]3CO[C@]2(COS(N)(=O)=O)O1 [Example 2, 2,3-O-(1-Methylethylidene)-4,5-O-sulfonyl-β-L-fructopyranose Sulfamate]
responders at 75 mg/kg [1]: 80%

CNS(=O)(=O)OC[C@@]12OC[C@H]3OS(=O)(=O)O[C@H]3[C@@H]1OC(C)(C)O2 [Example 3, 2,3-O-(1-Methylethylidene)-4,5-O-sulfonyl-β-D-fructopyranose Methylsulfamate]
responders at 10 mg/kg [1]: 100%
Urine pH ([2]; 2.7 mg/kg PO, 4 hours, control 6.98): 9.02
Urine pH ([2]; 2.7 mg/kg PO, 24 hours, control 6.43): 6.78
Water Intake ([2]; 2.7 mg/kg PO, 24 hours): 23.6 mL
Urine Output ([2]; 2.7 mg/kg PO, 24 hours): 28.8 mL

CCCCNS(=O)(=O)OC[C@@]12OC[C@H]3OS(=O)(=O)O[C@H]3[C@@H]1OC(C)(C)O2 [Example 4, 2,3-O-(1-Methylethylidene)-4,5-O-sulfonyl-β-D-fructopyranose Butylsulfamate]
responders at 35 mg/kg [1]: 100%

CCNS(=O)(=O)OC[C@@]12OC[C@H]3OS(=O)(=O)O[C@H]3[C@@H]1OC(C)(C)O2 [Example 5, 2,3-O-(1-Methylethylidene)-4,5-O-sulfonyl-β-D-fructopyranose Ethylsulfamate]
responders at 10 mg/kg [1]: 100%
Urine pH ([2]; 1.2 mg/kg PO, 4 hours, control 6.98): 9.03
Urine pH ([2]; 1.2 mg/kg PO, 24 hours, control 6.43): 6.41
Water Intake ([2]; 1.2 mg/kg PO, 24 hours): 15.8 mL
Urine Output ([2]; 1.2 mg/kg PO, 24 hours): 19.9 mL

CCCCCCCCNS(=O)(=O)OC[C@@]12OC[C@H]3OS(=O)(=O)O[C@H]3[C@@H]1OC(C)(C)O2 [Example 6, 2,3-O-(1-Methylethylidene)-4,5-O-sulfonyl-β-D-fructopyranose Octylsulfamate]
responders at 75 mg/kg [1]: 100%

C=CCNS(=O)(=O)OC[C@@]12OC[C@H]3OS(=O)(=O)O[C@H]3[C@@H]1OC(C)(C)O2 [Example 7, 2,3-O-(1-Methylethylidene)-4,5-O-sulfonyl-β-D-fructopyranose 2-Propenylsulfamate]
responders at 10 mg/kg [1]: 70%

CC1(C)O[C@H]2[C@@H]3OS(=O)(=O)O[C@@H]3CO[C@@]2(COS(=O)(=O)NCc2ccccc2)O1 [Example 8, 2,3-O-(1-Methylethylidene)-4,5-O-sulfonyl-β-D-fructopyranose Phenylmethylsulfamate]
responders at 75 mg/kg [1]: 100%

CC1(C)O[C@H]2[C@@H]3OS(=O)(=O)O[C@@H]3CO[C@@]2(COS(=O)(=O)NC2CCC2)O1 [Example 10, 2,3-O-(1-Methylethylidene)-4,5-O-sulfonyl-β-D-fructopyranose Cyclobutylsulfamate]
responders at 10 mg/kg [1]: 90%

CC1(C)O[C@H]2[C@@H]3OS(=O)(=O)O[C@@H]3CO[C@@]2(COS(=O)(=O)NC2CCCCCCC2)O1 [Example 11, 2,3-O-(1-Methylethylidene)-4,5-O-sulfonyl-β-D-fructopyranose Cyclooctylsulfamate]
responders at 75 mg/kg [1]: 30%
Percent Inhibition of Total Acid Output [3]: 50%

CC1(C)O[C@H]2[C@@H]3OS(=O)(=O)O[C@@H]3CO[C@@]2(COS(=O)(=O)NCC(F)(F)F)O1 [Example 12, 2,3-O-(1-Methylethylidene)-4,5-O-sulfonyl-β-D-fructopyranose (2,2,2-Trifluoroethyl)sulfamate]
responders at 10 mg/kg [1]: 40%

CN(C)S(=O)(=O)OC[C@@]12OC[C@H]3OS(=O)(=O)O[C@H]3[C@@H]1OC(C)(C)O2 [Example 13, 2,3-O-(1-Methylethylidene)-4,5-O-sulfonyl-β-D-fructopyranose Dimethylsulfamate]
responders at 10 mg/kg [1]: 70%
Urine pH ([2]; 2.1 mg/kg PO, 4 hours, control 6.98): 8.93
Urine pH ([2]; 2.1 mg/kg PO, 24 hours, control 6.43): 6.81
Water Intake ([2]; 2.1 mg/kg PO, 24 hours): 21 mL
Urine Output ([2]; 2.1 mg/kg PO, 24 hours): 23.2 mL

CCN(CC)S(=O)(=O)OC[C@@]12OC[C@H]3OS(=O)(=O)O[C@H]3[C@@H]1OC(C)(C)O2 [Example 14, 2,3-O-(1-Methylethylidene)-4,5-O-sulfonyl-β-D-fructopyranose Diethylsulfamate]
responders at 10 mg/kg [1]: 10%

CC1(C)O[C@H]2[C@@H]3O[S@@](=O)O[C@@H]3CO[C@@]2(COS(N)(=O)=O)O1 [Example 16, (S)-2,3-O-(1-Methylethylidene)-4,5 -O-sulfinyl-β-D-fructopyranose Sulfamate]
responders at 75 mg/kg [1]: 40%

CC1(C)O[C@H]2[C@@H]3O[S@](=O)O[C@@H]3CO[C@@]2(COS(N)(=O)=O)O1 [Example 17, (R)-2,3-O-(1-Methylethylidene)-4,5-O-sulfinyl-β-D-fructopyranose Sulfamate]
responders at 35 mg/kg [1]: 90%

CCC1(CC)O[C@H]2[C@@H]3OS(=O)(=O)O[C@@H]3CO[C@@]2(COS(N)(=O)=O)O1 [Example 18, 2,3-O-(1-Ethylpropylidene)-4,5-O-sulfonyl-β-D-fructopyranose Sulfamate]
responders at 75 mg/kg [1]: 100%

Cc1ccc(S(=O)(=O)N=S2O[C@@H]3[C@@H](CO[C@@]4(COS(N)(=O)=O)OC(C)(C)O[C@@H]34)O2)cc1 (stereo partly drawn) [Example 19, 2,3-O-(1-Methylethylidene)-4,5-O-[N-(4-methylbenzenesulfonyl)imidosulfinyl]-β-D-fructopyranose Sulfamate]
responders at 300 mg/kg [1]: 80%

Cc1ccc(S(=O)(=O)N=S2(=O)O[C@@H]3[C@@H](CO[C@@]4(COS(N)(=O)=O)OC(C)(C)O[C@@H]34)O2)cc1 (stereo partly drawn) [Example 20, 2,3-O-(1-Methylethylidene)-4,5-O-[N-(4-methylbenzenesulfonyl)imidosulfonyl]-β-D-fructopyranose Sulfamate]
responders at 300 mg/kg [1]: 75%

NS(=O)(=O)OC[C@@]12OC[C@H]3OS(=O)(=O)O[C@H]3[C@@H]1OC1(CCCCC1)O2 [Example 21, 2,3-O-(Cyclohexylidene)-4,5-O-sulfonyl-β-D-fructopyranose Sulfamate]
Percent Inhibition of Total Acid Output [3]: 27%
